Data taken from US10584104B2, “Carboxylic acid URAT1 inhibitor containing diarylmethane structure, preparation method and use thereof” (TIANJIN INSTITUTE OF PHARMACEUTICAL RESEARCH CO., LTD., priority 2015, dated 2020).
Where two headings read alike, the source gives them in different places.

Key:
URAT1 [1] = biological target: T1, URAT1 (Homo sapiens (Human), UniProt Q96S37); assay: Inhibition of [8-14C] uric acid uptake by HEK293 cells stably expressing URAT1, test compounds at 10 μM; format: cell-based
Description: (I) Inhibitory Experiment of the Test Compounds at a Concentration of 10 μM on URAT1 After trypsin digestion, the expression cells (HEK293) stably expressing URAT1 gene and mock cells were all inoculated into lysine-coated 24-well culture plates, with the cell inoculation density being 1×10^5 cells/well, and cultured in incubator at 37° C., 5% CO2 and saturated humidity for 2 days. […] After 2 min, the reaction was terminated with ice-bathed DPBS buffer solution and washing was carried out for three times. […]
wherein, control=the intensity of radioactivity corresponding to the well without the test compound test compound=the intensity of radioactivity corresponding to the well with the test compound mock=the intensity of radioactivity corresponding to the well of blank cells untransfected with URAT1

URAT1 [2] = biological target: T1, URAT1; assay: IC50 for inhibition of the test compounds on URAT1 (nine concentration points, 0.001-10 μM); details: HEK293 cells stably expressing URAT1; [8-14C] uric acid uptake; nine concentrations 0.001-10 μM
[3] = 10 μM test compound, HEK293 cells stably expressing URAT1, 30 μM [8-14C] uric acid, 2 min, read-out: Inhibition rate (%)
[4] = HEK293, read-out: Inhibition rate (%)
[5] = 10 μM test compound, HEK293 cells stably expressing URAT1, 30 μM [8-14C] uric acid, 2 min

T1 sequence (Q96S37 whole entry): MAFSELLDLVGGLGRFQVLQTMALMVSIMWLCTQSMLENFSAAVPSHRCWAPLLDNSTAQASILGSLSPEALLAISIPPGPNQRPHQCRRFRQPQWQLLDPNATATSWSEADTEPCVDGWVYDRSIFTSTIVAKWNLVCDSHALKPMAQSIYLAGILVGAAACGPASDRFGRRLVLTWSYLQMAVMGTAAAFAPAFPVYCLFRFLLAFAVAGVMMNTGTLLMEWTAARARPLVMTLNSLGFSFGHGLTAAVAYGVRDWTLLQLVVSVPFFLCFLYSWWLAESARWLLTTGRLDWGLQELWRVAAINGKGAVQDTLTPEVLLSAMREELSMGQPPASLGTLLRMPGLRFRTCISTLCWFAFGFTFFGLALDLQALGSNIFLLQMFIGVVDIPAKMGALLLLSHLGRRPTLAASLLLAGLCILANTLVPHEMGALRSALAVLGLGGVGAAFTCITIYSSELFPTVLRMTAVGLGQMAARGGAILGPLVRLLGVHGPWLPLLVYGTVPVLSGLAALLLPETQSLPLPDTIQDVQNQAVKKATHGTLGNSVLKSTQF

SMILES	inhibition at 10 µM (URAT1 [1]; [3]) [%]	other results
CC(C)(Sc1nnc(Br)n1-c1ccc(C2CC2)c2ccccc12)C(=O)O [Compound A, reference compound]	–	inhibition at 10 µM (URAT1 [1]; [4]): 55%
CC(C)(Sc1nnc(F)n1Cc1ccc(C2CC2)c2ccccc12)C(=O)O [Compound of Example 19]	82	–
O=C(O)CSc1nnc(Br)n1Cc1ccc(Cl)c2ccccc12 [Compound of Example 13]	75	–
O=C(O)CSc1nnc(Cl)n1Cc1ccc(C2CC2)c2ccccc12 [Compound of Example 5]	76	IC50 (URAT1 [2]): 418 nM
CCc1ccc(Cn2c(Br)nnc2SCC(=O)O)c2ccccc12 [Compound of Example 9]	84	–
CC(C)(Sc1nnc(Br)n1Cc1ccc(C2CC2)c2ccccc12)C(=O)O [Compound of Example 17]	93	IC50 (URAT1 [2]): 1020 nM
CC(C)(Sc1nnc(I)n1Cc1ccc(C2CC2)c2ccccc12)C(=O)O [Compound of Example 21]	82	–
N#Cc1ccc(Cn2c(Br)nnc2SCC(=O)O)c2ccccc12 [Compound of Example 14]	84	–
O=C(O)CSc1nnc(Br)n1Cc1cccc2ccccc12 [Compound of Example 7]	83	–
Cc1ccc(Cn2c(Br)nnc2SCC(=O)O)c2ccccc12 [Compound of Example 8]	83	–
O=C(O)CSc1nnc(I)n1Cc1ccc(C2CC2)c2ccccc12 [Compound of Example 6]	78	IC50 (URAT1 [2]): 440 nM
O=C(O)CSc1nnc(F)n1Cc1ccc(C2CC2)c2ccccc12 [Compound of Example 4]	62	–
O=C(O)CSc1nnc(Br)n1Cc1ccc(C2CC2)c2ccccc12 [Compound of Example 1]	–	Inhibition rate (%) (URAT1 [1]; [5]): 90%; IC50 (URAT1 [2]): 201 nM
CCCc1ccc(Cn2c(Br)nnc2SCC(=O)O)c2ccccc12 [Compound of Example 10]	85	IC50 (URAT1 [2]): 94 nM
O=C(O)CSc1nncn1Cc1ccc(C2CC2)c2ccccc12 [Compound of Example 3]	60	–
O=C(O)CCc1nnc(Br)n1Cc1ccc(C2CC2)c2ccccc12 [Compound of Example 2]	–	Inhibition rate (%) (URAT1 [1]; [5]): 91%; IC50 (URAT1 [2]): 193 nM
O=C(O)CSc1nnc(Br)n1Cc1ccc([N+](=O)[O-])c2ccccc12 [Compound of Example 15]	70	–
CC(C)(Sc1nnc(Cl)n1Cc1ccc(C2CC2)c2ccccc12)C(=O)O [Compound of Example 20]	86	IC50 (URAT1 [2]): 886 nM
O=C(O)CCc1nnc(Br)n1-c1ccc(C2CC2)c2ccccc12 [Compound B, reference compound]	–	inhibition at 10 µM (URAT1 [1]; [4]): 50%
CC(C)(Sc1nncn1Cc1ccc(C2CC2)c2ccccc12)C(=O)O [Compound of Example 18]	78	–
COc1ccc(Cn2c(Br)nnc2SCC(=O)O)c2ccccc12 [Compound of Example 16]	81	–
CC(C)(Sc1nnc(Br)n1Cc1cccc2ccccc12)C(=O)O [Compound of Example 22]	77	–
CC(C)c1ccc(Cn2c(Br)nnc2SCC(=O)O)c2ccccc12 [Compound of Example 11]	91	IC50 (URAT1 [2]): 484 nM
O=C(O)CSc1nnc(Br)n1Cc1ccc(F)c2ccccc12 [Compound of Example 12]	76	–

Further lines, with some results ahead:

inhibition at 10 µM (URAT1 [1]; [3]) [%]	SMILES	other results
67	O=C(O)CCc1nncn1Cc1ccc(C2CC2)c2ccccc12 [Compound of Example 32]	–
77	CC(C)(Sc1nnc(Br)n1Cc1ccc(Cl)c2ccccc12)C(=O)O [Compound of Example 28]	–
80	CCCc1ccc(Cn2c(Br)nnc2SC(C)(C)C(=O)O)c2ccccc12 [Compound of Example 25]	IC50 (URAT1 [2]): 1010 nM
84	COc1ccc(Cn2c(Br)nnc2SC(C)(C)C(=O)O)c2ccccc12 [Compound of Example 31]	–
88	O=C(O)CCc1nnc(Cl)n1Cc1ccc(C2CC2)c2ccccc12 [Compound of Example 34]	–
80	CC(C)(Cc1nnc(F)n1Cc1ccc(C2CC2)c2ccccc12)C(=O)O [Compound of Example 43]	–
84	O=C(O)CCc1nnc(I)n1Cc1ccc(C2CC2)c2ccccc12 [Compound of Example 35]	–
93	CC(C)c1ccc(Cn2c(Br)nnc2CC(C)(C)C(=O)O)c2ccccc12 [Compound of Example 49]	IC50 (URAT1 [2]): 487 nM
81	CC(C)(Sc1nnc(Br)n1Cc1ccc([N+](=O)[O-])c2ccccc12)C(=O)O [Compound of Example 30]	–
94	CC(C)(Cc1nnc(Br)n1Cc1ccc(C2CC2)c2ccccc12)C(=O)O [Compound of Example 41]	–
71	CC(C)(Cc1nncn1Cc1ccc(C2CC2)c2ccccc12)C(=O)O [Compound of Example 42]	–
92	CC(C)(Cc1nnc(Br)n1Cc1ccc(C#N)c2ccccc12)C(=O)O [Compound of Example 50]	–
81	CC(C)(Cc1nnc(Cl)n1Cc1ccc(C2CC2)c2ccccc12)C(=O)O [Compound of Example 44]	–
68	O=C(O)CCc1nnc(F)n1Cc1ccc(C2CC2)c2ccccc12 [Compound of Example 33]	–
86	CCCc1ccc(Cn2c(Br)nnc2CCC(=O)O)c2ccccc12 [Compound of Example 38]	IC50 (URAT1 [2]): 107 nM
93	O=C(O)CCc1nnc(Br)n1Cc1ccc(Br)c2ccccc12 [Compound of Example 52]	IC50 (URAT1 [2]): 83 nM
89	CC(C)(Sc1nnc(Br)n1Cc1ccc(C#N)c2ccccc12)C(=O)O [Compound of Example 29]	–
83	Cc1ccc(Cn2c(Br)nnc2SC(C)(C)C(=O)O)c2ccccc12 [Compound of Example 23]	–
91	CC(C)c1ccc(Cn2c(Br)nnc2SC(C)(C)C(=O)O)c2ccccc12 [Compound of Example 26]	–
85	CCCc1ccc(Cn2c(Br)nnc2CC(C)(C)C(=O)O)c2ccccc12 [Compound of Example 48]	IC50 (URAT1 [2]): 512 nM
92	N#Cc1ccc(Cn2c(Br)nnc2CCC(=O)O)c2ccccc12 [Compound of Example 40]	–
82	CC(C)(Cc1nnc(I)n1Cc1ccc(C2CC2)c2ccccc12)C(=O)O [Compound of Example 45]	–
84	CCc1ccc(Cn2c(Br)nnc2SC(C)(C)C(=O)O)c2ccccc12 [Compound of Example 24]	–
84	CCc1ccc(Cn2c(Br)nnc2CCC(=O)O)c2ccccc12 [Compound of Example 37]	–
92	CC(C)c1ccc(Cn2c(Br)nnc2CCC(=O)O)c2ccccc12 [Compound of Example 39]	IC50 (URAT1 [2]): 381 nM
85	CCc1ccc(Cn2c(Br)nnc2CC(C)(C)C(=O)O)c2ccccc12 [Compound of Example 47]	–
83	CC(C)(Sc1nnc(Br)n1Cc1ccc(F)c2ccccc12)C(=O)O [Compound of Example 27]	–
84	Cc1ccc(Cn2c(Br)nnc2CC(C)(C)C(=O)O)c2ccccc12 [Compound of Example 46]	–
82	Cc1ccc(Cn2c(Br)nnc2CCC(=O)O)c2ccccc12 [Compound of Example 36]	–
